This assay deals with PIK3CD (Human) (UniProt O00329). As to the kind of experiment: Assessment of PIK3CD Kinase Activity (Scintillation Proximity Assay). For orientation: In a scintillation proximity assay essentially only radioactivity close to the scintillant gives light.

SMILES strings stand for the structures.

Sequence of PIK3CD (Human) (O00329 whole entry, looked up): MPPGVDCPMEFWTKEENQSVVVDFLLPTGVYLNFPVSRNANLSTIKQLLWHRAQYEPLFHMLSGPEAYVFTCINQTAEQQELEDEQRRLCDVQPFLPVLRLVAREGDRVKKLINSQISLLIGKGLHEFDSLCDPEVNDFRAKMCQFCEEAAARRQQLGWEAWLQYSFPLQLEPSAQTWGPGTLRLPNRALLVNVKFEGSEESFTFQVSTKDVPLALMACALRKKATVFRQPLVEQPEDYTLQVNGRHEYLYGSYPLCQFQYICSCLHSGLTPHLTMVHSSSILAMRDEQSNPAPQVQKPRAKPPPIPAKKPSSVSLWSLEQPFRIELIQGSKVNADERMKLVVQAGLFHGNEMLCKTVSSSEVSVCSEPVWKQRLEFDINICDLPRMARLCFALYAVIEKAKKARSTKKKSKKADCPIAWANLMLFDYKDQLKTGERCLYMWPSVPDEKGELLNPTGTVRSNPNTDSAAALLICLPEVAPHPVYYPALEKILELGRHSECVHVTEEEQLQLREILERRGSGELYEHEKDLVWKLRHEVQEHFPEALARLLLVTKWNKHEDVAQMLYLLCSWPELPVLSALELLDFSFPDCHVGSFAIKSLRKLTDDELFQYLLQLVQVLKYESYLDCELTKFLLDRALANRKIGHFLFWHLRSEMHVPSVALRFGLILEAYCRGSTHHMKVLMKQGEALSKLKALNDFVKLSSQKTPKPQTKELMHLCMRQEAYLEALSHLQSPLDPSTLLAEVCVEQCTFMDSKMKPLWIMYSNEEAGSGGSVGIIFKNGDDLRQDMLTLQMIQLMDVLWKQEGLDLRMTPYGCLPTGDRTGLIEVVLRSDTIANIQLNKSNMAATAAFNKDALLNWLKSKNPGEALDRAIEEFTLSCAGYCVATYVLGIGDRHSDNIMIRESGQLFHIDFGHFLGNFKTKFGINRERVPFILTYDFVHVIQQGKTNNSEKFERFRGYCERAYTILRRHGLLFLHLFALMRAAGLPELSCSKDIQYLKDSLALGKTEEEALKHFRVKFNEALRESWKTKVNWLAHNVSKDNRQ

For orientation: IC50 means the concentration needed to halve the response being measured. Lower therefore signals greater potency. With `CCNC(=O)c1c(C)c(Cl)cc(C(C)n2nc(-c3ccc4[nH]ccc4c3)c3c(N)ncnc32)c1OCC` (centres undefined), the IC50 is at most 10 nM.

`COc1c(C(C)n2nc(C)c3c(N)ncnc32)cc(Cl)c(C)c1-c1cnn(CCN(C)C)c1` (centres undefined) came in with an IC50 of at most 10 nM. `COc1c(C(C)n2nc(C(F)F)c3c(N)ncnc32)cc(Cl)c(C)c1-c1ccc(C(=O)N(C)C)nc1` (centres undefined) came in with an IC50 of at most 10 nM. For `COc1c(C(C)n2nc(C)c3c(N)ncnc32)cc(Cl)c(C)c1C1CN(CC#N)C1` (centres undefined) the value was at most 10 nM; for `COc1c(C(C)n2nc(C)c3c(N)ncnc32)cc(Cl)c(C#N)c1C1CN(C(=O)N(C)C)C1` (centres undefined), at most 10 nM; for `CCOc1c(C(C)n2nc(-c3cc[nH]n3)c3c(N)ncnc32)cc(Cl)c(C)c1-c1ccc(C(=O)N(C)C)nc1` (centres undefined), at most 10 nM. The same measure for `Cc1c(Cl)cc(C(C)n2nc(C)c3c(N)ncnc32)c(OCC(F)F)c1-c1ccc(C(=O)N(C)C)nc1` (centres undefined): at most 10 nM; for `CCOc1c(C(C)n2nc(C)c3c(N)ncnc32)cc(Cl)c(C#N)c1-c1ccnc(C(=O)N(C)C)c1` (centres undefined): at most 10 nM. For `CCOc1c(C(C)n2nc(C)c3c(N)ncnc32)cc(Cl)c(C#N)c1N1CC(COC)C1` (centres undefined), the IC50 is at most 10 nM. Regarding `COc1c(C(C)n2ccc(=O)c3c(N)ncnc32)cc(Cl)c(C)c1-c1ccc(C(=O)N(C)C)nc1` (centres undefined), the IC50 was at most 10 nM. The same measure for `COc1c(C(C)n2nc(C)c3c(N)ncnc32)cc(Cl)c(C)c1-c1ccc(OCCO)nc1` (centres undefined): at most 10 nM; for `COc1c(C(C)n2nc(C)c3c(N)ncnc32)cc(Cl)c(C)c1-c1cncc(C(=O)N2CCC(O)CC2)c1` (centres undefined): at most 10 nM; for `CCOc1c(C(C)n2nc(C)c3c(N)ncnc32)cc(Cl)c(F)c1C1CNC(=O)O1` (centres undefined): at most 10 nM. The same measure for `COc1c(C(C)n2nc(C)c3c(N)ncnc32)cc(C#N)c(C)c1-c1ccnc(C(=O)N(C)CCO)c1` (centres undefined): 10 to 50 nM; for `CCOc1c(C(C)n2nc(C(F)F)c3c(N)ncnc32)cc(Cl)c(F)c1C1CN(C(C)C)C1` (centres undefined): at most 10 nM. For `COc1c(C(C)n2nc(C)c3c(N)ncnc32)cc(Cl)c(C)c1-c1ccc(C(=O)NCCO)nc1` (centres undefined) the value was at most 10 nM; for `COc1c(C(C)n2ccc(=O)c3c(N)ncnc32)cc(Cl)c(C)c1-c1cncc(S(C)(=O)=O)c1` (centres undefined), at most 10 nM; for `CCOc1c(C(C)n2nc(C)c3c(N)ncnc32)cc(Cl)c(C#N)c1C1CN(C(=O)C(C)(C)C)C1` (centres undefined), at most 10 nM.

Regarding `COc1c(C(C)n2ccc(=O)c3c(N)ncnc32)cc(Cl)c(C)c1-c1cccc(S(=O)(=O)N(C)C)c1` (centres undefined), the IC50 is at most 10 nM. For `CCOc1c(C(C)n2nc(C)c3c(N)ncnc32)cc(Cl)c(C#N)c1C1CN(C(C)=O)C1` (centres undefined) the value was at most 10 nM. `CCOc1c(C(C)n2nc(C)c3c(N)ncnc32)cc(Cl)c(C#N)c1C1CN(CC#N)C1` (centres undefined) registered an IC50 of at most 10 nM.

`CCOc1c(C(C)n2nc(C)c3c(N)ncnc32)cc(Cl)c(C)c1C1CN(C(C)C)C1` (centres undefined): the IC50 is at most 10 nM. For `COc1c(C(C)n2nc(C)c3c(N)ncnc32)cc(Cl)c(C)c1C1CN(C(=O)[C@H](C)O)C1` (some centres undefined) the value was at most 10 nM; for `CCOC(=O)N1CC(c2c(C#N)c(Cl)cc(C(C)n3nc(C)c4c(N)ncnc43)c2OC)C1` (centres undefined), at most 10 nM; for `COc1c(C(C)n2nc(C)c3c(N)ncnc32)cc(Cl)c(C)c1C1CN([C@H](C)CO)C1` (some centres undefined), at most 10 nM. Consider `COc1c(C(C)n2nc(C)c3c(N)ncnc32)cc(Cl)c(C)c1-c1ccnc(C(=O)N(C)C)c1` (centres undefined), for which the concentration for half-maximal inhibition (IC50) is at most 10 nM. `CCOc1c(C(C)n2nc(C)c3c(N)ncnc32)cc(C)c(C#N)c1C1CN(C(C)C)C1` (centres undefined) gave a half-maximal inhibitory concentration (IC50) of at most 10 nM. The same measure for `CCOc1c(C(C)n2nc(C)c3c(N)ncnc32)cc(Cl)c(C#N)c1C1CN(C(=O)CC)C1` (centres undefined): at most 10 nM; for `COc1c(C(C)n2nc(C(F)F)c3c(N)ncnc32)cc(C#N)c(F)c1C1CN(CCO)C1` (centres undefined): at most 10 nM. Take `COc1c(C(C)n2nc(C)c3c(N)ncnc32)cc(Cl)c(C)c1C1CCN(C)CC1` (centres undefined): the half-inhibitory concentration (IC50) is at most 10 nM.

`COc1c(C(C)n2ccc(=O)c3c(N)ncnc32)cc(Cl)c(C)c1-c1cncc(F)c1` (centres undefined): the concentration for half-maximal inhibition (IC50) was at most 10 nM. For `CCOc1c(C(C)n2nc(-c3cccnc3)c3c(N)ncnc32)cc(Cl)c(C)c1-c1ccc(C(=O)N(C)C)nc1` (centres undefined) the value was at most 10 nM. For `CCOc1c(C(C)n2nc(C)c3c(N)ncnc32)cc(Cl)c(C#N)c1N1CC(C#N)C1` (centres undefined) the value was at most 10 nM. For `CCOc1c(C(C)n2nc(C)c3c(N)ncnc32)cc(Cl)c(C#N)c1C1CN(CC2CC2)C1` (centres undefined) the value was at most 10 nM. `CCN1CC(c2c(C)c(Cl)cc(C(C)n3nc(C)c4c(N)ncnc43)c2OC)C1` (centres undefined) showed a concentration for half-maximal inhibition (IC50) of at most 10 nM.

As to `CCOc1c(C(C)n2nc(C)c3c(N)ncnc32)cc(Cl)c(F)c1C1CN(CC(N)=O)C1` (centres undefined), the IC50 was at most 10 nM. The same measure for `CCOc1c(C(C)n2nc(C)c3c(N)ncnc32)cc(Cl)c(C#N)c1C1CN(CC(C)(C)O)C1` (centres undefined): at most 10 nM; for `COc1c(C(C)n2nc(C)c3c(N)ncnc32)cc(Cl)c(Cl)c1C1CN(C2COC2)C1` (centres undefined): at most 10 nM; for `CCOc1c(C(C)n2nc(C#N)c3c(N)ncnc32)cc(Cl)c(C)c1-c1ccc(C(=O)N(C)C)nc1` (centres undefined): 10 to 50 nM. The same measure for `COc1c(C(C)n2nc(C)c3c(N)ncnc32)cc(Cl)c(C#N)c1C1CN(C2COC2)C1` (centres undefined): at most 10 nM.

`COc1c(C(C)n2nc(C)c3c(N)ncnc32)cc(Cl)c(C)c1C1CN(C(=O)C(C)(C)O)C1` (centres undefined) registered a half-maximal inhibitory concentration (IC50) of at most 10 nM. For `CCOc1c(C(C)n2nc(C)c3c(N)ncnc32)cc(Cl)c(C#N)c1-c1cncnc1` (centres undefined) the value was at most 10 nM; for `CCOc1c(C(C)n2nc(C)c3c(N)ncnc32)cc(Cl)c(C#N)c1C1CN(C(C)(C)C(=O)N(C)C)C1` (centres undefined), at most 10 nM; for `COc1c(C(C)n2nc(C)c3c(N)nccc32)cc(Cl)c(C)c1-c1ccc(C(=O)N(C)C)nc1` (centres undefined), 50 to 200 nM. For `CCOc1c(C(C)n2nc(C)c3c(N)ncnc32)cc(Cl)c(C#N)c1C1CNC(=O)O1` (centres undefined) the value was at most 10 nM; for `CCOc1c(C(C)n2nc(C)c3c(N)ncnc32)cc(Cl)c(C#N)c1C1CN(C(=O)OC)C1` (centres undefined), at most 10 nM; for `COc1c(C(C)n2nc(C)c3c(N)ncnc32)cc(Cl)c(C#N)c1C1CN(CC2CCOCC2)C1` (centres undefined), at most 10 nM. For `CCOC(=O)N1CC(c2c(C#N)c(Cl)cc(C(C)n3nc(C)c4c(N)ncnc43)c2OCC)C1` (centres undefined) the value was at most 10 nM. In turn, `COc1c(C(C)n2nc(C)c3c(N)ncnc32)cc(Cl)c(C)c1-c1ccc(C(=O)N(C)CCO)nc1` (centres undefined) displayed a 50% inhibitory concentration (IC50) of at most 10 nM.

Compound `COc1c(C(C)n2nc(C)c3c(N)ncnc32)cc(Cl)c(C)c1C1CN(C2COC2)C1` (centres undefined) had an IC50 of at most 10 nM. The compound `CCOc1c(C(C)n2nc(C)c3c(N)ncnc32)cc(Cl)c(F)c1C1CN(CCO)C1` (centres undefined) returned an IC50 of at most 10 nM. For `COc1c(C(C)n2cc(C)c(=O)c3c(N)ncnc32)cc(Cl)c(C)c1-c1ccc(C(=O)N(C)C)nc1` (centres undefined) the value was at most 10 nM. For `CCOc1c(C(C)n2nc(C(F)F)c3c(N)ncnc32)cc(Cl)c(F)c1C1CN(C[C@H](C)O)C1` (some centres undefined) the value was at most 10 nM; for `CCNC(=O)c1c(C)c(Cl)cc(C(C)n2nc(-c3ccc4nc(N)sc4c3)c3c(N)ncnc32)c1OCC` (centres undefined), at most 10 nM. Consider `CCOc1c(C(C)n2nc(C)c3c(N)ncnc32)cc(Cl)c(F)c1C1CN(CC(F)F)C1` (centres undefined), for which the IC50 was at most 10 nM. The compound `COc1c(C(C)n2nc(C)c3c(N)ncnc32)cc(Cl)c(C#N)c1C1CN(C2CCC2)C1` (centres undefined) registered an IC50 of at most 10 nM. The same measure for `CCOc1c(C(C)n2nc(C)c3c(N)ncnc32)cc(Cl)c(C#N)c1C1CN(S(=O)(=O)C2CC2)C1` (centres undefined): at most 10 nM; for `COc1c(C(C)n2nc(C)c3c(N)ncnc32)cc(Cl)c(C#N)c1C1CN(C(C)C)C1` (centres undefined): at most 10 nM. `CCOc1c(C(C)n2nc(C)c3c(N)ncnc32)cc(Cl)c(F)c1C1CN(CC(F)(F)F)C1` (centres undefined) came in with a concentration for half-maximal inhibition (IC50) of at most 10 nM. For `COc1c(C(C)n2nc(C)c3c(N)ncnc32)cc(Cl)c(C)c1C1CN([C@@H](C)CO)C1` (some centres undefined) the value was at most 10 nM; for `CCOc1c(C(C)n2nc(C)c3c(N)ncnc32)cc(C)c(C#N)c1C1CN(C[C@H](C)O)C1` (some centres undefined), at most 10 nM; for `CCOc1c(C(C)n2nc(C)c3c(N)ncnc32)cc(Cl)c(C)c1-c1ccc(C(=O)NC)nc1` (centres undefined), at most 10 nM. The same measure for `COc1c(C(C)n2nc(C)c3c(N)ncnc32)cc(Cl)c(C)c1C1CN(C(C)CF)C1` (centres undefined): at most 10 nM; for `CCOc1c(C(C)n2nc(C)c3c(N)ncnc32)cc(Cl)c(C#N)c1C1CN(C(C)(C)C(=O)OC(C)(C)C)C1` (centres undefined): at most 10 nM; for `CCOc1c(C(C)n2cc(C)c3c(N)ncnc32)cc(Cl)c(C#N)c1C1CN(C(C)C)C1` (centres undefined): at most 10 nM.

The compound `COc1c(C(C)n2nc(C(F)F)c3c(N)ncnc32)cc(Cl)c(F)c1C1CN(C)C1` (centres undefined) gave an IC50 of at most 10 nM. For `COc1c(C(C)n2cc(-c3cn[nH]c3)c(=O)c3c(N)ncnc32)cc(Cl)c(C)c1-c1ccc(C(=O)N(C)C)nc1` (centres undefined) the value was at most 10 nM.

The compound `CCNC(=O)c1c(C)c(Cl)cc(C(C)n2nc(-c3ccc4oc(N)nc4c3)c3c(N)ncnc32)c1OCC` (centres undefined) returned an IC50 of at most 10 nM. For `CCOc1c(C(C)n2ccc(=O)c3c(N)ncnc32)cc(Cl)c(C#N)c1-c1cncc(S(C)(=O)=O)c1` (centres undefined) the value was at most 10 nM; for `COc1c(C(C)n2nc(C)c3c(N)ncnc32)cc(Cl)c(C)c1-c1ccc(N)nc1` (centres undefined), at most 10 nM.

With `COc1c(C(C)n2cc(C)c3c(N)ncnc32)cc(Cl)c(C)c1-c1ccc(C(=O)N(C)C)nc1` (centres undefined), the IC50 is at most 10 nM. The same measure for `COc1c(C(C)n2nc(C)c3c(N)ncnc32)cc(C)c(C#N)c1C1CN(CC(C)(C)O)C1` (centres undefined): at most 10 nM. In the case of `COc1c(C(C)n2nc(C)c3c(N)ncnc32)cc(Cl)c(Cl)c1C1CN(C[C@H](C)O)C1` (some centres undefined), the concentration for half-maximal inhibition (IC50) is at most 10 nM. The same measure for `CCOc1c(C(C)n2nc(C)c3c(N)ncnc32)cc(Cl)c(C#N)c1-c1cncc(C#N)c1` (centres undefined): at most 10 nM; for `CCOc1c(C(C)n2cc(C)c3c(N)ncnc32)cc(Cl)c(C#N)c1C1CN(C[C@H](C)O)C1` (some centres undefined): at most 10 nM; for `COc1c(C(C)n2nc(C)c3c(N)ncnc32)cc(Cl)c(C)c1C1CN(CC(F)F)C1` (centres undefined): at most 10 nM. Compound `COc1c(C(C)n2nc(C)c3c(N)ncnc32)cc(Cl)c(Cl)c1C1CN(C[C@@H](C)O)C1` (some centres undefined) gave a half-inhibitory concentration (IC50) of at most 10 nM. The same measure for `COc1c(C(C)n2nc(C)c3c(N)ncnc32)cc(Cl)c(C)c1CCC(=O)N(C)C` (centres undefined): at most 10 nM; for `COc1c(C(C)n2nc(C)c3c(N)ncnc32)cc(Cl)c(C)c1C1CN(C(=O)c2cnoc2C)C1` (centres undefined): at most 10 nM.
